Values of other authors in patent US11400105B2, “Anti-inflammatory properties of marine lipid compositions” (AKER BIOMARINE ANTARCTIC AS, priority 2006, dated 2022).

Legend:
pre-term infants = settings: for absorption: ref [8]
[1] = ethyl esters (4 g/d); ref [12]

Row | Compound | absorption (pre-term infants) | absorption of DHA from egg lecithin (pre-term infants; ref [7]) | absorption of DHA from triglycerides (pre-term infants; ref [7]) | relative absorption based on the area under the concentration curve [1] | relative absorption compared to oleic acid calculated from peak concentrations [1]
1 | CCCCCC=CCC=CCC=CCC=CCCCC(=O)O [AA, 5,8,11,14-eicosatetraenoic acid] | 75% |  |  |  | 
2 | CC/C=C\C/C=C\C/C=C\C/C=C\C/C=C\C/C=C\CCC(=O)O [DHA, 4,7,10,13,16,19-docosahexanoic acid] | 62% | 90% | 80% | 93% | 100%
3 | CCC=CCC=CCC=CCC=CCC=CCCCC(=O)O [EPA, 5,8,11,14,17-eicosapentaenoic acid] |  |  |  | 91% | 94%
